Data from patent US20080089927A1, “Methods for Coacervation Induced Liposomal Encapsulation and Formulations Thereof” (priority 2006, published 2008).
Read-outs that look alike come from different tables or passages of the source.

How the values were obtained:
[1] = Ternary phase diagram amikacin sulfate-water-ethanol; type: physicochemical; conditions: 3 parts amikacin sulfate 70 mg/mL in water mixed with 2 parts ethanol
Description: FIG. 3 depicts a ternary phase diagram of amikacin sulfate—water—ethanol system.
FIG. 3 depicts a ternary phase diagram for an amikacin sulfate—water—ethanol system. The two-phase area under the binodial curve is a zone where the system separates into two phases, a coacervate phase and an equilibrium phase. The area above the binodial curve is a zone where single liquid phase system of amikacin sulfate dissolved in water-ethanol mixture exists. When 3 parts of amikacin sulfate solution in water at 70 mg/mL (point 1) is mixed with 2 parts of ethanol, the resulting mixture has composition (point 2), which spontaneously separates into two phases: coacervate phase rich in amikacin (point C) and equilibrium phase pour in amikacin (point E). Coacervate phase comprises only about 4.5% of total volume and originally forms as small droplets suspended in equilibrium phase. If lipids are present in surrounding solution when coacervates are just formed, they can spontaneously form bilayers around those droplets. During manufacturing it is often desired to limit exposure of the product to high ethanol concentration. For examples, another 3 parts of saline or buffer can be added consequently to the mixture, which shifts composition to the single-phase zone (point 3). […]

[2] = Miscibility of amikacin sulfate with ethanol/water; type: physicochemical; conditions: ethanol/water mixture, aqueous with cosolvent or surfactant or cyclodextrin

coacervate phase, share of total volume [1] | solubility ([2]; 27% ethanol, depending on temperature, read-out: amikacin soluble concentration) | solubility ([2]; 34% ethanol, read-out: solubility limit) | Structure (SMILES)
about 4.5% | – | – | NCC[C@H](O)C(=O)N[C@@H]1C[C@H](N)[C@@H](O[C@H]2O[C@H](CN)[C@@H](O)[C@H](O)[C@H]2O)[C@H](O)[C@H]1O[C@H]1O[C@H](CO)[C@@H](O)[C@H](N)[C@H]1O.O=S(=O)(O)O.O=S(=O)(O)O [amikacin sulfate]
– | ≥ 15 mg/mL | < 15 mg/mL | NCC[C@H](O)C(=O)N[C@@H]1C[C@H](N)[C@@H](O[C@H]2O[C@H](CN)[C@@H](O)[C@H](O)[C@H]2O)[C@H](O)[C@H]1O[C@H]1O[C@H](CO)[C@@H](O)[C@H](N)[C@H]1O [amikacin]
